Source: patent publication US10517889B2, “Modulators of SMAD7 expression” (Ionis Pharmaceuticals, Inc., priority 2017, dated 2019)
Strand notation (5' to 3'): a small letter for the sugar, then the base; units joined by * are phosphorothioate-linked, units joined directly phosphodiester-linked; [ ] holds rarer units or linkages, { } end groups; capitals alone tell only the bases. k = constrained ethyl (cEt); [5mC] = 5-methylcytosine; d = 2'-deoxy (DNA)

System: human SMAD7 mRNA
Assay: Antisense inhibition of human SMAD7 mRNA expression in Hep3B cells by 3-10-3 cEt gapmers, 10,000 nM, electroporation (Example 2)
Type: cell-based
Conditions: Hep3B cells, 10,000 nM antisense oligonucleotide, electroporation, approximately 24 hours, RT-PCR primer probe set RTS5062, relative to untreated control cells
Method in brief: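 SMAD7 mRNA was measured by real-time PCR (RTS5062) with RiboGreen total-RNA normalization, about 24 h after 10,000 nM gapmer was delivered by electroporation into Hep3B cells at 20,000 per well. Gapmers were 16-mer 3-10-3 cEt, fully phosphorothioate; values are % inhibition versus untreated controls.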

| Substance | % Inhibition [%] |
| --- | --- |
| 799911 (antisense kA*kG*k[5mC]*d[5mC]*dA*dA*d[5mC]*dT*d[5mC]*d[5mC]*dA*dT*dT*k[5mC]*kA*kT) [compound 799911] | 0 |
| 800035 (k[5mC]*kA*kA*dA*dG*dG*d[5mC]*d[5mC]*d[5mC]*d[5mC]*dT*d[5mC]*dG*kA*kA*k[5mC]; antisense) [compound 800035] | 34 |
| 799995 (k[5mC]*kT*kG*dT*dG*dA*dG*dG*d[5mC]*dA*d[5mC]*dT*dT*kG*kG*kA; antisense) [compound 799995] | 63 |
| 799897 (antisense kT*k[5mC]*kT*d[5mC]*dT*dT*dA*d[5mC]*d[5mC]*dT*d[5mC]*dA*d[5mC]*k[5mC]*k[5mC]*kA) [compound 799897] | 27 |
| 798907 (kG*k[5mC]*kG*dG*d[5mC]*dT*dA*d[5mC]*d[5mC]*dG*dG*d[5mC]*dT*kG*kT*kT; antisense) [compound 798907] | 0 |

Same assay, conditions: Hep3B cells, electroporation with 10,000 nM antisense oligonucleotide, approximately 24 hours, RTS5062, percent inhibition of SMAD7 mRNA relative to untreated control cells

| Substance | % Inhibition [%] |
| --- | --- |
| 799688 (antisense k[5mC]*kA*k[5mC]*d[5mC]*dA*d[5mC]*d[5mC]*d[5mC]*dA*dA*dA*dG*d[5mC]*k[5mC]*kT*kG) [compound 799688] | 50 |
| 799765 (antisense kA*kA*kG*d[5mC]*dA*d[5mC]*dG*d[5mC]*dT*dA*dA*dG*dG*kA*kA*kA) [compound 799765] | 23 |
| 799761 (antisense kT*kG*kT*d[5mC]*dA*dT*dT*dA*dG*dA*dA*d[5mC]*dA*kA*kT*kG) [compound 799761] | 35 |

Same assay, conditions: Hep3B cells, electroporation with 10,000 nM antisense oligonucleotide, approximately 24 hours, SMAD7 mRNA by RT-PCR (RTS5062), relative to untreated control cells

| Substance | % Inhibition [%] |
| --- | --- |
| 799454 (antisense kT*kT*kA*dA*dA*dG*dA*d[5mC]*dA*dG*dA*dG*dG*kA*kG*k[5mC]) [compound 799454] | 55 |
| 830166 (antisense k[5mC]*kA*k[5mC]*dA*dG*d[5mC]*dT*dG*dT*dA*d[5mC]*d[5mC]*dA*kG*kG*kG) [compound 830166] | 48 |
| 830017 (antisense kA*kG*kG*d[5mC]*dG*dG*dA*dA*dG*dG*dA*d[5mC]*dT*kT*kG*k[5mC]) [compound 830017] | 30 |
| 830161 (antisense kA*kG*kG*dT*dG*dA*dA*dA*dG*dT*dT*dA*dT*k[5mC]*kA*k[5mC]) [compound 830161] | 13 |
| 798739 (antisense k[5mC]*kG*k[5mC]*d[5mC]*dT*dT*d[5mC]*dA*dG*dA*dT*d[5mC]*d[5mC]*kG*k[5mC]*k[5mC]) [compound 798739] | 37 |
| 799923 (antisense kG*k[5mC]*k[5mC]*dT*dA*d[5mC]*dA*dT*dA*dT*dT*dT*d[5mC]*kG*k[5mC]*kA) [compound 799923] | 15 |
| 800084 (antisense kG*k[5mC]*k[5mC]*dA*dA*dA*dT*d[5mC]*dA*d[5mC]*dA*dA*d[5mC]*kA*kT*kG) [compound 800084] | 57 |
| 798870 (kG*kG*kG*dA*dA*d[5mC]*dA*d[5mC]*d[5mC]*dT*dT*dG*dT*kG*kT*kA; antisense) [compound 798870] | 14 |
| 798922 (kA*kA*kG*dT*dG*dT*dG*dG*d[5mC]*d[5mC]*dT*dG*d[5mC]*kT*k[5mC]*kA; antisense) [compound 798922] | 59 |

Same assay, conditions: Hep3B cells, electroporation with 10,000 nM antisense oligonucleotide, approximately 24 hours, primer probe set RTS5062, relative to untreated control cells

| Substance | % Inhibition [%] | % inhibition of SMAD7 mRNA expression [%] |
| --- | --- | --- |
| 799237 (kA*k[5mC]*kA*dT*dA*dA*dA*d[5mC]*dT*d[5mC]*d[5mC]*dT*dT*kT*kA*kG; antisense) [compound 799237] | 9 | – |
| 799013 (kT*k[5mC]*k[5mC]*dA*dT*dA*dA*dG*dA*dG*dA*d[5mC]*dA*k[5mC]*kA*kA; antisense) [compound 799013] | 37 | – |
| 799021 (kG*kG*kA*d[5mC]*dT*dG*d[5mC]*dA*dA*dA*d[5mC]*d[5mC]*dT*k[5mC]*kT*k[5mC]; antisense) [compound 799021] | 62 | – |
| 799112 (antisense kG*kG*kG*dA*dG*d[5mC]*dA*dG*dG*d[5mC]*dA*dG*dT*kG*k[5mC]*kT) [compound 799112] | – | 58 |
| 799020 (kG*kA*k[5mC]*dT*dG*d[5mC]*dA*dA*dA*d[5mC]*d[5mC]*dT*d[5mC]*kT*k[5mC]*kT; antisense) [compound 799020] | 48 | – |
| 798942 (antisense k[5mC]*kG*kA*dG*dA*dA*dG*dA*dA*dG*dA*dA*dA*kA*k[5mC]*k[5mC]) [compound 798942] | 35 | – |
| 799201 (antisense kT*kT*kT*dT*d[5mC]*dA*dG*dG*dA*dG*dT*d[5mC]*d[5mC]*kT*kT*kT) [compound 799201] | – | 38 |
| 798724 (antisense k[5mC]*kA*k[5mC]*d[5mC]*dG*d[5mC]*d[5mC]*dT*dT*dG*d[5mC]*d[5mC]*d[5mC]*kA*kG*kG) [compound 798724] | – | 19 |
| 798765 (kA*kA*k[5mC]*dA*d[5mC]*dT*dT*dT*dG*d[5mC]*dA*d[5mC]*dA*kG*k[5mC]*kA; antisense) [compound 798765] | – | 63 |
| 799111 (antisense kA*kG*k[5mC]*dA*dG*dG*d[5mC]*dA*dG*dT*dG*d[5mC]*dT*kG*kA*kG) [compound 799111] | – | 50 |
| 790631 (kG*kT*kT*dT*dA*dA*dT*dG*dG*dA*dA*d[5mC]*dA*kT*kA*kA; antisense) [compound 790631] | 0 | – |
| 799211 (kA*k[5mC]*kA*dT*dA*dA*dA*dT*dA*dA*dT*dG*dA*kT*kG*k[5mC]; antisense) [compound 799211] | 0 | – |
| 798960 (antisense kA*k[5mC]*k[5mC]*d[5mC]*d[5mC]*d[5mC]*dA*dA*d[5mC]*dA*dA*dT*dT*k[5mC]*kT*kT) [compound 798960] | 39 | – |
| 799137 (antisense kA*kA*kT*d[5mC]*d[5mC]*dT*dT*d[5mC]*dT*dT*dG*dG*dA*kG*kG*kG) [compound 799137] | 49 | – |
| 799459 (antisense kA*k[5mC]*kA*dG*dA*dG*dT*d[5mC]*dT*dT*dT*dG*dA*kA*kA*kA) [compound 799459] | – | 0 |

Same assay, conditions: Hep3B cells, electroporation, 10,000 nM antisense oligonucleotide, approximately 24 hours, RTS5062, relative to untreated control cells

| Substance | % inhibition of SMAD7 mRNA expression [%] |
| --- | --- |
| 799794 (kA*kA*k[5mC]*d[5mC]*dA*d[5mC]*dA*dG*d[5mC]*dT*d[5mC]*d[5mC]*dT*kG*kT*kT; antisense) [compound 799794] | 0 |
| 799756 (antisense k[5mC]*kA*kG*dG*dG*d[5mC]*dA*dG*d[5mC]*dT*d[5mC]*d[5mC]*dG*kA*kG*kA) [compound 799756] | 44 |
| 799698 (antisense kT*kA*kA*dT*dA*dG*dT*dT*dT*dT*d[5mC]*dT*d[5mC]*kT*k[5mC]*kA) [compound 799698] | 33 |
| 799299 (antisense kA*kT*kT*d[5mC]*d[5mC]*dA*dA*dA*dA*dG*dG*d[5mC]*dT*kG*kA*k[5mC]) [compound 799299] | 42 |

Same assay, conditions: Hep3B cells, electroporation, 10,000 nM, approximately 24 hours; 3-10-3 cEt gapmers targeting SEQ ID NO: 3 and 4

| Substance | % inhibition of SMAD7 mRNA expression [%] |
| --- | --- |
| 799240 (kA*kT*k[5mC]*dT*dG*dG*dA*d[5mC]*dA*dG*dT*d[5mC]*dA*kG*kT*kT; antisense) [compound 799240] | 45 |

Same assay, conditions: SMAD7 mRNA, Hep3B cells, 10,000 nM antisense oligonucleotide, electroporation, approximately 24 hours, primer probe set RTS5062, relative to untreated control cells

| Substance | % Inhibition [%] |
| --- | --- |
| 829771 (antisense kG*k[5mC]*kA*dG*dT*d[5mC]*d[5mC]*dA*dG*dG*d[5mC]*dG*dG*k[5mC]*k[5mC]*kG) [compound 829771] | 22 |
| 800793 (antisense kT*kG*kA*d[5mC]*dT*d[5mC]*dT*dT*dG*dT*dT*dG*dT*k[5mC]*k[5mC]*kG) [compound 800793] | 53 |
| 829741 (antisense k[5mC]*k[5mC]*kG*dG*dA*d[5mC]*dG*dA*dG*d[5mC]*dG*d[5mC]*dA*kG*kA*kT) [compound 829741] | 32 |
| 829774 (antisense kA*kG*kT*dA*dG*dG*dA*d[5mC]*dG*dA*dG*dG*dG*k[5mC]*kG*kG) [compound 829774] | 22 |

Same assay, conditions: SMAD7 mRNA, Hep3B cells, electroporation with 10,000 nM antisense oligonucleotide, approximately 24 hours, primer probe set RTS5062, relative to untreated control cells

| Substance | % Inhibition [%] |
| --- | --- |
| 829985 (kG*kA*kG*dG*d[5mC]*dG*dG*dT*dG*dA*dT*dT*dG*k[5mC]*k[5mC]*kT; antisense) [compound 829985] | 16 |
| 829884 (antisense kT*kG*k[5mC]*dA*dG*dG*d[5mC]*dT*dG*dT*dA*d[5mC]*dG*k[5mC]*k[5mC]*kT) [compound 829884] | 24 |
| 829952 (kA*k[5mC]*k[5mC]*d[5mC]*dG*dT*d[5mC]*dT*dG*dG*dG*d[5mC]*dT*k[5mC]*k[5mC]*kG; antisense) [compound 829952] | 2 |
| 829804 (kT*kA*kG*dT*dT*d[5mC]*dG*d[5mC]*dA*dG*dA*dG*dT*k[5mC]*kG*kG; antisense) [compound 829804] | 39 |
| 829917 (antisense kA*kG*kT*dG*dT*dA*dT*dG*dA*dG*dT*dT*dG*kT*kA*kG) [compound 829917] | 45 |
| 830008 (antisense kT*kA*kG*dA*dG*dG*d[5mC]*dT*d[5mC]*dT*dA*dT*dT*kT*k[5mC]*kT) [compound 830008] | 0 |
| 829846 (antisense kG*kT*k[5mC]*d[5mC]*dG*dA*dA*dT*dT*dG*dA*dG*d[5mC]*kT*kG*kT) [compound 829846] | 29 |
| 829932 (kT*kG*kA*dT*dA*dA*d[5mC]*dA*d[5mC]*d[5mC]*d[5mC]*dA*dT*kA*kG*kA; antisense) [compound 829932] | 41 |
